From US9708336B2, “Metallo-beta-lactamase inhibitors” (priority 2014, dated 2017)
Like-named read-outs stand apart in the source and are kept apart here.

Columns and labels:
[1] = test system: Escherichia coli expressing NDM-1 (CLB30016); assay: Antibiotic potentiation activity: synergistic concentration (MITC95) with imipenem, OD600 growth; type: cell-based; conditions: (CLB30016, NDM-1), 95% growth inhibition
Outline: (§1)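 Inoculum: saline suspension of overnight colonies, 1:100 into 1.1× CAMHB. Imipenem 4 μg/ml final (alt. 1 μg/ml) + compound; 35 °C, 22–24 h; absorbance read-out.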

[2] = test system: Serratia marcescens expressing IMP-1 (CL5741); assay: as above; type: cell-based; conditions: Serratia marcescens CL5741 (IMP-1), 95% growth inhibition
Outline: as §1

[3] = test system: Klebsiella pneumoniae expressing VIM-1 (IHMA599644); assay: as above; type: cell-based; conditions: Klebsiella pneumoniae IHMA599644 (VIM-1), 95% growth inhibition
Outline: as §1

NDM-1 = NDM-1 (Klebsiella pneumoniae, UniProt C7C422); assay: biochemical; type: biochemical
NDM-1, sequence (C7C422 whole entry, looked up, species assumed): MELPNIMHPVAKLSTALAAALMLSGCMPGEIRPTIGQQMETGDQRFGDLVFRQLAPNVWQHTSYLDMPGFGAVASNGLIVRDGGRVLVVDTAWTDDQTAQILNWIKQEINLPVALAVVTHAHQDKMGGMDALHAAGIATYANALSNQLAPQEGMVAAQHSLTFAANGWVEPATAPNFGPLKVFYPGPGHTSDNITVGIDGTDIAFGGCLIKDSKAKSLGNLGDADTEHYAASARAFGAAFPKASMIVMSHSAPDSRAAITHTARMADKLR

IMP-1 = IMP-1 (Serratia marcescens, UniProt P52699); assay: biochemical; type: biochemical
IMP-1, sequence (P52699 whole entry, looked up): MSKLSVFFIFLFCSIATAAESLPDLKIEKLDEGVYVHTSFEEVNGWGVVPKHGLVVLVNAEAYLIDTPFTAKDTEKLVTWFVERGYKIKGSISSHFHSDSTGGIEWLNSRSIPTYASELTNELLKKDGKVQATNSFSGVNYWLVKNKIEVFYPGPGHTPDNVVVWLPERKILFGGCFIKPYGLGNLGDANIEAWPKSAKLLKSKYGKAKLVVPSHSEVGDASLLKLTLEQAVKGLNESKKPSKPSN

VIM-1 = VIM-1 (Pseudomonas aeruginosa (strain ATCC 15692 / DSM 22644 / CIP 104116 / JCM 14847 / LMG 12228 / 1C / PRS 101 / PAO1), UniProt A0A0F7KYQ8); assay: Enzyme activity: determination of IC50, fluorescence assay with CCF2-FA substrate (VIM-1); type: biochemical; conditions: CCF2-FA substrate
[4] = NDM-1 enzyme, CCF2-FA substrate, read-out: NDM-1 IC50
[5] = IMP-1 enzyme, CCF2-FA substrate, read-out: IMP-1 IC50
[6] = VIM-1 enzyme, read-out: VIM-1 IC50

Structure (SMILES) | Escherichia coli MITC95 [1] [µM] | Serratia marcescens MITC95 [2] [µM] | Klebsiella pneumoniae MITC95 [3] [µM] | IC50 (NDM-1; [4]) [nM] | IC50 (IMP-1; [5]) [nM] | IC50 (VIM-1; VIM-1 IC50, VIM-1 enzyme) [nM] | IC50 (VIM-1; [6]) [nM] | IC50 (NDM-1) [nM] | IC50 (IMP-1) [nM]
NC1(CN2CCC(c3ccc(-c4ccc(C(F)(F)F)c(S(N)(=O)=O)c4-c4nnn[nH]4)cc3)CC2)CC1 [Example 672, 4′-{1-[(1-aminocyclopropyl)methyl]piperidin-4-yl}-2-(1H-tetrazol-5-yl)-4-(trifluoromethyl)biphenyl-3-sulfonamide] | 6.25 | 4.688 | 75 | 3.66 | 2.51 | 3.38 |  |  | 
NS(=O)(=O)c1c(C(F)(F)F)ccc(-c2ccc(C3CCN(CC4CCCNC4)CC3)cc2)c1-c1nnn[nH]1 (stereo not drawn) [Example 673, 4′-[1-(piperidin-3-ylmethyl)piperidin-4-yl]-2-(1H-tetrazol-5-yl)-4-(trifluoromethyl)biphenyl-3-sulfonamide] | 3.125 | 3.125 | 62.5 | 10.1 | 1.35 |  | 9.07 |  | 
CNCCN1CCC(c2ccc(-c3ccc(C(F)(F)F)c(S(N)(=O)=O)c3-c3nnn[nH]3)cc2)CC1 [Example 674, 4′-{1-[2-(methylamino)ethyl]piperi-din-4-yl}-2-(1H-tetrazol-5-yl)-4-(trifluoromethyl)biphenyl-3-sulfonamide] | 3.125 | 6.25 | 75 | 6.63 | 2.47 |  | 17.4 |  | 
NS(=O)(=O)c1c(C(F)(F)F)ccc(-c2ccc(C3CCN(C[C@H]4CCCN4)CC3)cc2)c1-c1nnn[nH]1 [Example 675, 4′-{1-[(2R)-pyrrolidin-2-ylmethyl]piperidin-4-yl}-2-(1H-tetrazol-5-yl)-4-(trifluoromethyl)biphenyl-3-sulfonamide] | 4.688 | 6.25 | 150 | 4.53 | 1.94 | 14.7 |  |  | 
NS(=O)(=O)c1c(C(F)(F)F)ccc(-c2ccc(C3CCN(CC4CCCCN4)CC3)cc2)c1-c1nnn[nH]1 (stereo not drawn) [Example 676, 4′-[1-(piperidin-2-ylmethyl)piperidin-4-yl]-2-(1H-tetrazol-5-yl)-4-(trifluoromethyl)biphenyl-3-sulfonamide] | 12.5 | 6.25 | >200 | 5.59 | 1.26 |  | 9.1 |  | 
C[N+](C)(C)CCN1CCC(c2ccc(-c3ccc(C(F)(F)F)c(S(N)(=O)=O)c3-c3nnn[nH]3)cc2)CC1 [Example 677, N,N,N-trimethyl-2-{4-[3′-sulfamoyl-2′-(1H-tetrazol-5-yl)-4′-(trifluoromethyl)biphenyl-4-yl]piperidin-1-yl}ethanaminium] | 12.5 | 12.5 | >200 | 4.17 | 0.541 |  | 19.4 |  | 
NS(=O)(=O)c1c(C(F)(F)F)ccc(-c2ccc(C3CCN(C[C@@H]4CNCCO4)CC3)cc2)c1-c1nnn[nH]1 [Example 678, 4′-{1-[(2S)-morpholin-2-ylmethyl]piperidin-4-yl}-2-(1H-tetrazol-5-yl)-4-(trifluoromethyl)biphenyl-3-sulfonamide] | 9.375 | 6.25 | 150 | 15.3 | 5 |  | 20.7 |  | 
NS(=O)(=O)c1c(C(F)(F)F)ccc([C@H]2CC[C@H](N[C@H]3CC[C@H]4CCN[C@H]4C3)CC2)c1-c1nnn[nH]1 [Example 679, 3-{4-[(3aS,6S,7aS)-octahydro-1H-indol-6-ylamino]cyclohexyl}-2-(1H-tetrazol-5-yl)-6-(trifluoromethyl)benzene sulfonamide] | 1.563 | 3.125 | 50 | 19.8 | 75.3 | 21.2 |  |  | 
NS(=O)(=O)c1c(C(F)(F)F)ccc([C@H]2CC[C@H](NCC3CCNCC3)CC2)c1-c1nnn[nH]1 [Example 680, 3-{4-[(piperidin-4-ylmethyl)amino]cyclohex-yl}-2-(1H-tetrazol-5-yl)-6-(trifluoromethyl)benzene sulfonamide] | 1.563 | 3.125 | 6.25 | 41.4 | 86.6 |  | 5.16 |  | 
NS(=O)(=O)c1c(C(F)(F)F)ccc([C@H]2CC[C@H](NCC3CCCN3)CC2)c1-c1nnn[nH]1 (stereo partly drawn) [Example 681, 3-{4-[(pyrrolidin-2-ylmethyl)amino]cyclohex-yl}-2-(1H-tetrazol-5-yl)-6-(trifluoromethyl)benzene sulfonamide] | 1.563 | 3.125 | 6.25 | 8.72 | 16.1 | 7.1 |  |  | 
Nc1ccc(CN[C@H]2CC[C@H](c3ccc(C(F)(F)F)c(S(N)(=O)=O)c3-c3nnn[nH]3)CC2)cn1 [Example 682, 3-(4-{[(6-aminopyridin-3-yl)methyl]amino}cyclohex-yl)-2-(1H-tetrazol-5-yl)-6-(trifluoromethyl)benzene sulfonamide] | 6.25 | 6.25 | 12.5 |  |  |  | 0.684 | 4.12 | 27.4
CC(N[C@H]1CC[C@H](c2ccc(C(F)(F)F)c(S(N)(=O)=O)c2-c2nnn[nH]2)CC1)C1CCNCC1 (stereo partly drawn) [Example 683, 3-{4-[(1-piperidin-4-ylethyl)amino]cyclohexyl}-2-(1H-tetrazol-5-yl)-6-(trifluoromethyl)benzene sulfonamide] | 3.125 | 12.5 | 50 | 31.5 | 154 |  | 28.1 |  | 
NS(=O)(=O)c1c(C(F)(F)F)ccc([C@H]2CC[C@H](NC3CC[C@@H]4CNCC[C@H]4C3)CC2)c1-c1nnn[nH]1 (stereo partly drawn) [Example 684, 3-{4-[(4aS,8aS)-decahydroisoquinolin-6-ylamino]cyclohexyl}-2-(1H-tetrazol-5-yl)-6-(trifluoromethyl)benzene sulfonamide] | 3.125 | 6.25 | 12.5 | 38.6 | 75.7 |  | 10.8 |  | 
NS(=O)(=O)c1c(C(F)(F)F)ccc([C@H]2CC[C@H](NC3CC4(CCNCC4)C3)CC2)c1-c1nnn[nH]1 [Example 685, 3-[4-(7-azaspiro[3.5]non-2-ylamino)cyclohexyl]-2-(1H-tetrazol-5-yl)-6-(trifluoromethyl)benzene sulfonamide] | 1.563 | 6.25 | 25 | 30 | 75.8 |  | 4.88 |  | 
NS(=O)(=O)c1c(C(F)(F)F)ccc([C@H]2CC[C@H](NC3CC4CNCCN4C3)CC2)c1-c1nnn[nH]1 (stereo partly drawn) [Example 686, 3-[4-(octahydropyrrolo[1,2-a]pyrazin-7-ylamino)cyclohexyl]-2-(1H-tetrazol-5-yl)-6-(trifluoromethyl)benzene sulfonamide] | 1.563 | 6.25 | 12.5 | 9.53 | 31.7 | 15.7 |  |  | 
NC1CCCC(N[C@H]2CC[C@H](c3ccc(C(F)(F)F)c(S(N)(=O)=O)c3-c3nnn[nH]3)CC2)C1 (stereo partly drawn) [Example 687, 3-{4-[(3-aminocyclohexyl)amino]cyclohexyl}-2-(1H-tetrazol-5-yl)-6-(trifluoromethyl)benzene sulfonamide] | 3.125 | 6.25 | 25 | 25.2 | 94.3 | 27.8 |  |  | 
CC(CCCN)N[C@H]1CC[C@H](c2ccc(C(F)(F)F)c(S(N)(=O)=O)c2-c2nnn[nH]2)CC1 (stereo partly drawn) [Example 688, 3-{4-[(4-amino-1-methylbutyl)amino]cyclo-hexyl)-2-(1H-tetrazol-5-yl)-6-(trifluoromethyl)benzene sulfonamide] | 1.563 | 6.25 | 12.5 | 44.1 | 158 |  | 13.4 |  | 
NS(=O)(=O)c1c(C(F)(F)F)ccc([C@H]2CC[C@H](NC3CCC4(CCNCC4)CC3)CC2)c1-c1nnn[nH]1 [Example 689, 3-[4-(3-azaspiro[5.5]undec-9-ylamino)cyclohexyl]-2-(1H-tetrazol-5-yl)-6-(trifluoromethyl)benzene sulfonamide] | 6.25 | 6.25 | 12.5 | 26.8 | 52.1 |  | 6.43 |  | 
